The values below come from patent US20040082588A1, “Methods for treating disorders of calcium homeostasis” (Schering Corporation, priority 2002, published 2004).

The target in data set [1] is Farnesyl Protein Transferase (FPT) (Homo sapiens, UniProt P49356). Conditions: cited from earlier work.
A further data set concerns Ras-3T3 tumors. Conditions: mice bearing Ras-3T3 tumors with hypercalcemia (MAH); cited from earlier work.
The subject of the next data set is rat parathyroid glands. Briefly: Micrographic analysis (light and electron microscopy) of rat parathyroid glands. It counts as in vivo. An excerpt: Electron photomicrographs of the right parathyroid gland from two control rats sacrificed on Day 13 (Nos. 26F and 29F), two control rats sacrificed on Day 29 (Nos. 39F and 40F) and two Formula 1-dosed rats sacrificed on Day 29 (Nos. 76F and 77F) were examined for ultrastructural changes. […] A single rounded parathyroid epithelial cell in animal No. 77F appeared apoptotic with condensed chromatin and intact mitochondria and contained numerous vesicles similar to those previously described. The apoptotic cell is consistent with the single cell necrosis observed at the light microscopic level.

Data set [2] concerns Female Rats. Briefly: One-month exploratory nephrotoxicity study in female rats: serum ADH. It counts as in vivo, rat. Conditions: for Mean serum ADH: female rats, 180 mg/kg daily. The text has this: (§1) A study was undertaken to assess the potential nephrotoxicity of the compound of Formula 1 in rats. The rats were 6 week old females weighing 120.7 to 173.5 g at dosing initiation.
(§2) The study design is summarized below in Tables 1-3: […]

Data set [3] concerns Female Rats. Description: One-month exploratory nephrotoxicity study in female rats: serum PTH. It counts as in vivo, rat. Conditions: for Mean serum PTH: female rats, 180 mg/kg daily.
Source text: as §1, §2

Data set [4] has as its system Female Rats. Description: One-month exploratory nephrotoxicity study in female rats: urine calcium and phosphorus excretion. It counts as in vivo, rat. Conditions: for Mean calcium excretion / Mean phosphorus excretion: female rats, 180 mg/kg daily.
Source text: as §1, §2

The test system of data set [5] is Female Rats. Briefly: One-month exploratory nephrotoxicity study in female rats: urine volume and osmolality. It counts as in vivo, rat. Conditions: for Mean urine osmolality / Mean urine volume: female rats, 180 mg/kg daily.
Source text: as §1, §2

The mark [6] stands for this setting: electron photomicrographs, dosed rats.
[7] abbreviates: electron photomicrographs, two dosed rats sacrificed on Day 29.
Setting [8] is: within 6 days of dosing at 180 mg/kg, rats.

For the compound `NC(=O)N1CCC(CC(=O)N2CCC([C@H]3c4ncc(Br)cc4CCc4cc(Cl)cc(Br)c43)CC2)CC1` [SCH66336], the “FPT mediated farnesylation of the Ras protein” value in data set [1] was “inhibit”.

For the compound `COC(=O)[C@H](CCSC)NC(=O)[C@H](/C=C\[C@@H](/C=C/[C@@H](N)CS)C(C)C)Cc1ccccc1` [Formula B-1086], in the data set with Ras-3T3 tumors, the “serum PTHRP levels” value was “reduction” and the serum calcium entry is “normalization”.

Consider `NC(=O)N1CCC(CC(=O)N2CCC(C3c4ncc(Br)cc4CCc4cc(Cl)cc(Br)c43)CC2)CC1` (centres unmarked) [Formula 1], for which the “changes indicating chronic stimulation of parathyroid (rough endoplasmic reticulum, Golgi apparatus)” value in the data set with rat parathyroid glands (setting [6]) is listed as “no changes indicating chronic stimulation”. Besides, the “exhaustion vacuoles in parathyroid cells” value in the data set with rat parathyroid glands (setting [6]) is recorded as “no evidence of exhaustion vacuoles”. For the same compound, the “Ultrastructure of parathyroid chief cells: cell borders” value in the data set on rat parathyroid glands (setting [7]) is recorded as “less conspicuous cell borders with fewer, less distinctive cytoplasmic projections”. Also, the “Ultrastructure of parathyroid chief cells: cytoplasm content” value with rat parathyroid glands (setting [7]) is listed as “numerous, generally membrane-bound, vesicles”. Also, in the data set on rat parathyroid glands (setting [7]), the “number of myeloid bodies and fat globules in parathyroid cells” value is “minimally increased”. Moreover, the “Microscopic evaluation of the parathyroid glands” value with rat parathyroid glands (rats dosed with 180 mg/kg) is “cytoplasmic vacuolation”. Besides, the “Mean serum ADH” value in the data set with Female Rats [2] (Day 2) is 350 pg/mL; in the data set with Female Rats [2] (Day 6) it was 513 pg/mL; with Female Rats [2] (Day 13), 547 pg/mL; in the data set on Female Rats [2] (Day 29, water consumption had increased at this timepoint) it was 616^1 pg/ml. Besides, in the data set with Female Rats [2] (rats dosed at 180 mg/kg), the “antidiuretic hormone (ADH) concentrations (change vs control)” value is “increases”. The “Mean serum PTH” value with Female Rats [3] (Day 2) was determined as 60 ng/mL; with Female Rats [3] (Day 6) it was 51 ng/mL; in the data set on Female Rats [3] (Day 13) it was 68 ng/mL; in the data set with Female Rats [3] (Day 29), 44 ng/mL. Further, the “serum PTH (change vs control)” value in the data set with Female Rats [3] (rats dosed at 180 mg/kg) is “decrease”. Also, the “rats evaluated with lower PTH serum concentrations than the control rats” value with Female Rats [3] (within 28 days, 180 mg/kg) is listed as 5 out of 5. Moreover, the Mean calcium excretion was 5.65 mg/kg/24 hours with Female Rats [4] (Day 2, urine); 33 mg/kg/24 hours with Female Rats [4] (Day 6, urine); 20.7 mg/kg/24 hours in the data set with Female Rats [4] (Day 13, urine); 19.2 mg/kg/24 hours in the data set with Female Rats [4] (Day 29, urine). Moreover, the Mean phosphorus excretion was found to be 55.9 mg/kg/24 hours in the data set with Female Rats [4] (Day 2, urine); 13.5 mg/kg/24 hours with Female Rats [4] (Day 6, urine); 12.1 mg/kg/24 hours with Female Rats [4] (Day 13, urine); 7.3 mg/kg/24 hours in the data set on Female Rats [4] (Day 29, urine). Moreover, the “calcium excretion in the urine (change vs control)” value with Female Rats [4] (setting [8]) was “increased”. In the data set with Female Rats [4] (setting [8]), the “phosphorus excretion (change vs control)” value is recorded as “decreased”. Besides, the Mean urine osmolality worked out at 646 mOsm/kg in the data set with Female Rats [5] (Day 2), 646 mOsm/kg with Female Rats [5] (Day 6), 655 mOsm/kg in the data set on Female Rats [5] (Day 13) and 606 mOsm/kg with Female Rats [5] (Day 29). For the same compound, the Mean urine volume in the data set on Female Rats [5] (Day 2) is on record as 124 ml/kg/24 hours; in the data set on Female Rats [5] (Day 6), 195 ml/kg/24 hours; in the data set on Female Rats [5] (Day 13), 177 ml/kg/24 hours; in the data set on Female Rats [5] (Day 29), 166 ml/kg/24 hours. In addition, the “condition suggested by urine osmolality, urine volume and ADH changes” value in the data set on Female Rats [5] (rats dosed at 180 mg/kg) is given as “nephrogenic diabetes insipidus”. For the same compound, in the data set on Female Rats [5] (rats dosed at 180 mg/kg), the “urine osmolality (change vs control)” value is on record as “Decreases”. In the data set with Female Rats [5] (rats dosed at 180 mg/kg), the “urine volume (change vs control)” value is recorded as “increases”.
